The subject of data set [1] is Avena fatua, Bromus inermis, Matricaria chamomilla, Matricaria inodora. The data set can be described thus: greenhouse post-emergence herbicidal test, harmful plants. Conditions: application rate 125 or 62.5 g/ha a.s., 2 to 4 weeks. The format is in vivo. As for the experimental part:
(§1) The seeds of the test plants were sown separately for each species. For the post-emergence treatment, the test plants were grown to a plant height of from 3 to 15 cm, depending on the plant habit, and only then treated with the active ingredients which had been suspended or emulsified in water. To this end, the test plants were either sown directly and grown in the same containers, or they were first grown separately as seedlings and transplanted into the test containers a few days prior to treatment. The rate of application for the post-emergence treatment was 125 or 62.5 g/ha a.s. (active substance). Depending on the species, the plants were kept at from 10 to 25° C. and 20 to 35° C., respectively. The test period extended over 2 to 4 weeks. During this time, the plants were tended, and their response to the individual treatments was evaluated. Evaluation was carried out using a scale of from 0 to 100. 100 means no emergence of the plants, or complete destruction of at least the aerial parts, and 0 means no damage or normal course of growth. The plants used in the greenhouse experiments belonged to the following species: [table]

In the next data set the test system is spring wheat. The data set can be described thus: greenhouse post-emergence test, crop plant compatibility. In kind it is in vivo, Tritricum aestivum. The following applies: application rate 125 or 62.5 g/ha a.s., 2 to 4 weeks. The procedure: as §1

SMILES strings stand for the structures. Some results are limits rather than exact numbers.

With `Cc1cc(-c2c(S(C)(=O)=O)ccc(C(=O)c3cnn(C)c3O)c2C)on1` [A], the “herbicidal activity against the abovementioned harmful plants” value in data set [1] is listed as “weaker herbicidal activity”. Further, the “compatibility with / damage in the crop plant spring wheat” value with spring wheat is reported as “caused damage”. Compound `CC1=NOC(c2c(S(C)(=O)=O)ccc(C(=O)c3cnn(C)c3O)c2Cl)C1` (stereo not shown) [Compound 2.8, 4-[2-Chloro-3-(3-methyl-4,5-dihydroisoxazol-5-yl)-4-methyl-sulfonylbenzoyl]-5-hydroxy-1-methyl-1H-pyrazole] yielded a melting point greater than 215 °C. The same measure, in the same setting: for `CC1=NOC(c2c(S(C)(=O)=O)ccc(C(=O)c3cnn(C4CC4)c3O)c2Cl)C1` (stereo not shown) [Compound 2.36, 4-[2-Chloro-3-(3-methyl-4 , 5-dihydroisoxazol-5-yl)-4-methyl-sulfonylbenzoyl]-5-hydroxy-1-cyclopropyl-1H-pyrazole] the value was greater than 220 °C.

These data come from patent US20030100590A1, “3-(4,5-dihydroisoxazol-5-yl)benzoylpyrazole” (priority 1999, published 2003).
